Kd and IC50 data for 17 molecules are collected here from patent US20120129842A1, “BISTHIAZOLE INHIBITORS OF PRO-MATRIX METALLOPROTEINASE ACTIVATION” (priority 2010, published 2012).

Structures are written as SMILES. pIC50, pKd: −log10 of the molar value. Structures can show the parent of a compound that is named as a salt.

The pKd is the Kd on a negative log10 scale, so that one unit is a factor of ten. The term pIC50 denotes the IC50 on a negative log10 scale, so that one unit is a factor of ten. A high value points to a low IC50.

The target of test [1] is T1, proMMP9(20-445;ΔFnII) (SEQ ID NO:6) (Homo sapiens, UniProt P14780, DEL216-390).
T1 construct: start methionine (N); made in house; host or cells: E. coli BL21(DE3) RIL
T1 sequence (P14780 with tags, fused parts or gaps DEL216-390): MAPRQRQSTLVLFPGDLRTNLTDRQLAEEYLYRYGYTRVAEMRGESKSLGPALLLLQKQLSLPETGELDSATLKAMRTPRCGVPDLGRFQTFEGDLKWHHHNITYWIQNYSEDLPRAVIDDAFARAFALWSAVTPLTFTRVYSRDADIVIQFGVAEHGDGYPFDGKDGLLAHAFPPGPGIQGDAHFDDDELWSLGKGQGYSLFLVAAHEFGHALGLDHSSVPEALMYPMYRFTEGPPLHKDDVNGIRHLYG
Briefly: ThermoFluor binding assay with proMMP9(20-445;ΔFnII). Particulars: pH 7.0. How it is done:
(§1) The ThermoFluor® (TF) assay is a 384-well plate-based binding assay that measures thermal stability of proteins (Biomol Screen 2001, 6, 429-40; Biochemistry 2005, 44, 5258-66). The experiments were carried out using instruments available from Johnson & Johnson Pharmaceutical Research & Development, LLC. TF dye used in all experiments was […] (1,8-ANS) (Invitrogen: A-47).
(§2) Compounds were arranged in a pre-dispensed plate (Greiner Bio-one: 781280), wherein compounds were serially diluted in 100% DMSO across 11 columns within a series. Columns 12 and 24 were used as DMSO reference and contained no compound. For multiple compound concentration-response experiments, the compound aliquots ([…]) were robotically predispensed directly into black 384-well polypropylene PCR microplates (Abgene: TF-0384/k) using a Cartesian Hummingbird liquid handler (DigiLab, Holliston, Mass.). Following compound dispense, protein and dye solutions were added to achieve the final assay volume of 3 μL. The assay solutions were overlayed with 1 μL of silicone oil (Fluka, type DC 200: 85411) to prevent evaporation.
(§3) Assay plates were robotically loaded onto a thermostatically controlled PCR-type thermal block and then heated from 40 to 90° C. at a ramp-rate of 1° C./min for all experiments. Fluorescence was measured by continuous illumination with UV light (Hamamatsu LC6) supplied via fiber optics and filtered through a band-pass filter (380-400 nm; >6 OD cutoff). Fluorescence emission of the entire 384-well plate was detected by measuring light intensity using a CCD camera (Sensys, Roper Scientific) filtered to detect 500±25 nm, resulting in simultaneous and independent readings of all 384 wells. A single image with 20-sec exposure time was collected at each temperature, and the sum of the pixel intensity in a given area of the assay plate was recorded vs temperature and fit to standard equations to yield the Tm (J Biomol Screen 2001, 6, 429-40).
(§4) Thermodynamic parameters necessary for fitting compound binding for each proMMP were estimated by differential scanning calorimetry (DSC) and from ThermoFluor® data. The heat capacity of unfolding for each protein was estimated from the molecular weight and from ThermoFluor® dosing data.
The protein sample preparations included a desalting buffer exchange step via a PD-10 gravity column (GE Healthcare). The desalting buffer exchange was performed prior to diluting the protein to the final assay concentration of 2.8 μM proMMP9(20-445;ΔFnII) (SEQ ID NO:6). The concentration of proMMP9(20-445;ΔFnII) (SEQ ID NO:6) was determined spectrophotometrically based on a calculated extinction coefficient of ε280=39880 M^−cm^−1, a calculated molecular weight of 28.2 kDa, and calculated pI of 5.5. ThermoFluor® reference conditions were define as follows: 80 μg/mL (2.8 μM) proMMP9(20-445;ΔFnII) (SEQ ID NO:6), 50 μM 1,8-ANS, pH 7.0 Buffer (50 mM HEPES pH 7.0, 100 mM NaCl, 0.001% Tween-20, 2.5 mM MgCl2, 300 μM CaCl2). The thermodynamic parameters for proMMP9(20-445;ΔFnII) (SEQ ID NO:6) are as follows: Tm (° C.)=72 (+/−0.1), ΔUH(Tm) (cal mol^−1)=160000(+/−5000), ΔUS(Tm) (cal mol^−1 K^−1)=434, ΔUCp (cal mol^−1 K^−)=2400.
On the technique in general: DSF heats the sample and reads unfolding from a dye or from intrinsic fluorescence.

Test [2] addresses T2, proMMP9(67-444;ΔFnII) (SEQ ID NO:5) (Homo sapiens, UniProt P14780, DEL216-390).
T2 construct: start methionine (N); made in house; host or cells: E. coli BL21(DE3) RIL
T2 sequence (P14780 with tags, fused parts or gaps DEL216-390): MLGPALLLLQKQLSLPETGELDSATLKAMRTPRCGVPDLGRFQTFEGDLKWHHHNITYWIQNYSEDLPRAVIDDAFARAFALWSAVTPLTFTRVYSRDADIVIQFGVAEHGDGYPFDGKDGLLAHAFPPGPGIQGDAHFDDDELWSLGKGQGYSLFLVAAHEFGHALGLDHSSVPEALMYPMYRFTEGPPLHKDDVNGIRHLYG
Put plainly: ThermoFluor binding assay with proMMP9(67-444;ΔFnII). Particulars: pH 7.0. How it is done:
as §1, §2, §3, §4
The protein sample preparations had to include a desalting buffer exchange step via a PD-10 gravity column (GE Healthcare). The desalting buffer exchange was performed prior to diluting the protein to the final assay concentration of 3.5 μM proMMP9(67-444;ΔFnII) (SEQ ID NO:5). The concentration of proMMP9(67-444;ΔFnII) (SEQ ID NO:5) was determined spectrophotometrically based on a calculated extinction coefficient of ε280=33900 M^−1cm^−1, a calculated molecular weight of 22.6 kDa, and calculated pI of 5.20. ThermoFluor® reference conditions were defined as follows: 80 μg/mL (3.5 μM) proMMP9(67-444;ΔFnII) (SEQ ID NO:5), 50 μM 1,8-ANS, pH 7.0 Buffer (50 mM HEPES pH 7.0, 100 mM NaCl, 0.001% Tween-20, 2.5 mM MgCl2, 300 μM CaCl2). The thermodynamic parameters for proMMP9(67-444;ΔFnII) (SEQ ID NO:5) are as follows: Tm (° C.)=63 (+/−0.1), ΔUH(Tm) (cal mol^−1)=105000(+/−5000), ΔUS(Tm) (cal mol^−1 K^−1)=[…], ΔUCp (cal mol^−1 K^−1)=2000.

For test [3], the target named is T3, full-length proMMP9(1-707) (SEQ ID NO:1) (Homo sapiens, UniProt P14780, R574P).
T3 construct: made in house; host or cells: HEK293 (proMMP9, secreted); E. coli (MMP3)
Briefly: proMMP9/MMP3 P126 Activation Assay. The test is classed as biochemical. The conditions noted are these: 20 nM proMMP9, 20 nM MMP3, 80 min 37° C. How it is done:
The reaction volume was 50 μL. […] Reactivity of residual MMP3 towards P-126 substrate was minimal under these conditions.

T3 sequence (P14780 20-707 R574P): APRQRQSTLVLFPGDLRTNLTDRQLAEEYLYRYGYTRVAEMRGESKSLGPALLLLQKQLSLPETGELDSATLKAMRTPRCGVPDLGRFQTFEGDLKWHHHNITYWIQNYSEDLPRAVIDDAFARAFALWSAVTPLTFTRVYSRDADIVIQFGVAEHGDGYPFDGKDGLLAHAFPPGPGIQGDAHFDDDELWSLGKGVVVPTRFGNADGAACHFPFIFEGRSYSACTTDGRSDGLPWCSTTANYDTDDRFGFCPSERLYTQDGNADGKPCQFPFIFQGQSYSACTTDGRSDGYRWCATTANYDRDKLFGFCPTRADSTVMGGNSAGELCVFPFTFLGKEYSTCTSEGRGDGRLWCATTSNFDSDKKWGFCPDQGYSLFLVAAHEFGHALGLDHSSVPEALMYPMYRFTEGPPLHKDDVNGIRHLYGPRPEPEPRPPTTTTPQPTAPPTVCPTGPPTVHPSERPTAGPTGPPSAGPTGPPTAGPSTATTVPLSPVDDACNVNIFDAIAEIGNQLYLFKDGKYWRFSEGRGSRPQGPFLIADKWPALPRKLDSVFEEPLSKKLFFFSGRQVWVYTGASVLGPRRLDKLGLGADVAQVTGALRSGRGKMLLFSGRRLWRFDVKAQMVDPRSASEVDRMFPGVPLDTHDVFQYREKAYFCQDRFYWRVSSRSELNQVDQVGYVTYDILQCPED

Regarding `COc1cc(Nc2nc(-c3sc(C)nc3C)cs2)c2ncccc2c1` [Example 41, (2′,4′-Dimethyl-[4,5′]bithiazolyl-2-yl)-(6-methoxy-quinolin-8-yl)-amine.TFA], the pKd was 4.08 in test [1] and 4.21 in test [2]. Besides, in test [3], the negative logarithm of the IC50 (pIC50) is approximately 4.89.
In the case of `Cc1nc(C)c(-c2csc(Nc3cccc4cccnc34)n2)s1` [Example 42, (2′,4′-Dimethyl-[4,5′]bithiazolyl-2-yl)-quinolin-8-yl-amine.TFA], the values for the pKd in test [1] and in test [2] were less than 4.02 and 4.28, respectively. The pIC50 in test [3] was 5.04.
As for `COc1ccc(S(N)(=O)=O)cc1Nc1nc(-c2sc(N)nc2C)cs1` [Example 52, 3-(2′-Amino-4′-methyl-[4,5′]bithiazolyl-2-ylamino)-4-methoxy-benzenesulfonamide.HBr], the negative logarithm of the Kd (pKd) in test [1] is 6.06; in test [2], 5.80. In addition, in test [3], the pIC50 is 5.92.
In the case of `COc1ccc(S(N)(=O)=O)cc1Nc1nc(-c2sc(NC(C)=O)nc2C)cs1` [Example 53, N-[2-(2-Methoxy-5-sulfamoyl-phenylamino)-4′-methyl-[4,5′]bithiazolyl-2′-yl]-acetamide.HBr], the pKd was 5.82 in test [1] and 5.92 in test [2]. This molecule also showed a pIC50 in test [3] of 5.72.
On to `COc1ccc(C(=O)NCc2ccccc2)cc1Nc1nc(-c2sc(N)nc2C)cs1` [Example 56, 3-(2′-Amino-4′-methyl-[4,5′]bithiazolyl-2-ylamino)-N-benzyl-4-methoxy-benzamide.TFA], for which the pKd is 5.89 in test [1] and 5.64 in test [2]. For the same molecule, the pIC50 in test [3] was 4.92.
Turning to `COc1ccc([N+](=O)[O-])cc1Nc1nc(-c2sc(N)nc2C)cs1` [Example 67, N^2-(2-Methoxy-5-nitro-phenyl)-4′-methyl-[4,5′]bithiazolyl-2,2′-diamine.HBr], the pKd in test [1] is 6.25; in test [2], 7.06. In test [3], this molecule gave a negative logarithm of the IC50 (pIC50) of 6.35.
For the molecule `Cc1nc(C)c(-c2csc(Nc3cc(C#N)ccc3OC(C)C)n2)s1` [Example 72, 3-(2′,4′-Dimethyl-[4,5′]bithiazolyl-2-ylamino)-4-isopropoxy-benzonitrile.HBr], the pKd is 5.07 in test [1] and 5.92 in test [2]. The pIC50 in test [3] is 6.00.
In the case of `CC(=O)Nc1nc(C)c(-c2csc(Nc3cc(C#N)ccc3OC(C)C)n2)s1` [Example 73, N-[2-(5-Cyano-2-isopropoxy-phenylamino)-4′-methyl-[4,5′]bithiazolyl-2′-yl]-acetamide.HBr], the pKd in test [1] is 5.37; in test [2], 6.48. In addition, the pIC50 in test [3] was 6.28.
Take `Cc1nc(N)sc1-c1csc(Nc2cc(C(=O)O)ccc2OC(C)C)n1` [Example 77, 3-(2′-Amino-4′-methyl-[4,5′]bithiazolyl-2-ylamino)-4-isopropoxy-benzoic acid.TFA]: the pKd is 6.46 in test [1] and 6.35 in test [2]. For the same molecule, in test [3], the pIC50 was 6.39.
In the case of `COc1ccc(NC(C)=O)cc1Nc1nc(-c2sc(N)nc2C)cs1` [Example 84, N-[3-(2′-Amino-4′-methyl-[4,5′]bithiazolyl-2-ylamino)-4-methoxy-phenyl]-acetamide.TFA], the pKd was 4.72 in test [1] and 5.01 in test [2]. The molecule further showed a negative logarithm of the IC50 (pIC50) in test [3] of 5.01.
For the molecule `Cc1nc(N2CCCC2)sc1-c1csc(Nc2cc(C(N)=O)ccc2OC(C)C)n1` [Example 91, 4-Isopropoxy-3-(4′-methyl-2′-pyrrolidin-1-yl-[4,5′]bithiazolyl-2-ylamino)-benzamide.TFA], the negative-log Kd (pKd) in test [1] was 6.85; in test [2], 6.28. Moreover, in test [3], the pIC50 is 6.52.
Regarding `Cc1nc(Nc2ccncc2)sc1-c1csc(Nc2cc(C(N)=O)ccc2OC(C)C)n1` [Example 92, 4-Isopropoxy-3-[4′-methyl-2′-(pyridin-4-ylamino)-[4,5′]bithiazolyl-2-ylamino]-benzamide.TFA], the values for the pKd in test [1] and in test [2] were 7.35 and 6.66, respectively. For the same molecule, the pIC50 in test [3] is 6.47.
For `Cc1nc(-c2ncc(C(F)(F)F)cc2N2CCCC2)sc1-c1csc(Nc2cc(C(N)=O)ccc2OC(C)C)n1` [Example 97, 4-Isopropoxy-3-[4′-methyl-2′-(3-pyrrolidin-1-yl-5-trifluoromethyl-pyridin-2-yl)-[4,5′]bithiazolyl-2-ylamino]-benzamide.TFA] the same measures were 5.72, less than 4.02 and less than 4.70.
As to `COc1ccc(-c2ccc(C(C)=O)s2)cc1Nc1nc(-c2sc(C)nc2C)cs1` [Example 134, 1-{5-[3-(2′,4′-Dimethyl-[4,5′]bithiazolyl-2-ylamino)-4-methoxy-phenyl]-thiophen-2-yl}-ethanone], the pKd in test [1] is 4.74; in test [2], less than 4.02. In test [3], this molecule showed a pIC50 of less than 4.70.
`COc1ccc(-c2c(C)noc2C)cc1Nc1nc(-c2sc(C)nc2C)cs1` [Example 135, (2′,4′-Dimethyl-[4,5′]bithiazolyl-2-yl)-[5-(3,5-dimethyl-isoxazol-4-yl)-2-methoxy-phenyl]-amine]: the pKd in test [1] is 4.51; in test [2], 4.40. The molecule also gave a pIC50 in test [3] of approximately 5.30.
`COc1ccc(-c2cnn(C)c2)cc1Nc1nc(-c2sc(C)nc2C)cs1` [Example 136, (2′,4′-Dimethyl-[4,5′]bithiazolyl-2-yl)-[2-methoxy-5-(1-methyl-1H-pyrazol-4-yl)-phenyl]-amine]: the results for the pKd in test [1] and in test [2] were 4.42 and 5.09, respectively. The molecule further gave a negative-log IC50 (pIC50) in test [3] of approximately 5.22.
Consider `COc1ccc(-c2cc[nH]n2)cc1Nc1nc(-c2sc(C)nc2C)cs1` [Example 137, (2′,4′-Dimethyl-[4,5′]bithiazolyl-2-yl)-[2-methoxy-5-(1H-pyrazol-3-yl)-phenyl]-amine], for which the pKd in test [1] is 4.96; in test [2], 5.66. The molecule further had a pIC50 in test [3] of 5.33.
